Activity calls are given as the source filed them. The rule behind the calls is not given here.
What was measured:
Plasmodium cynomolgi [1] = assay: Antimalarial activity against Plasmodium cynomolgi infected in rhesus monkey assessed as curative activity without disease relapses until 90 days at 0.375 mg/kg administered qd for 7 days via stomach tube; format: functional, organism-based; set-up: dose 0.375 mg/kg
Mus musculus [2] = assay: Toxicity in mouse infected with blood schizonticidal Plasmodium berghei assessed as mortality at 160 mg/kg measured on days 2 to 5 after infection; format: organism-based; set-up: dose 160 mg/kg; details: in vivo
Mus musculus [3] = assay: Toxicity in mouse infected with blood schizonticidal Plasmodium berghei assessed as mortality at 640 mg/kg measured on days 2 to 5 after infection; format: organism-based; set-up: dose 640 mg/kg; details: in vivo
Plasmodium berghei [4] = assay: Antimalarial activity against blood schizonticidal Plasmodium berghei infected in mouse assessed as change in host mean survival time at 80 mg/kg; format: functional
Mus musculus [5] = assay: Toxicity in mouse infected with blood schizonticidal Plasmodium berghei assessed as mortality at 320 mg/kg measured on days 2 to 5 after infection; format: organism-based; set-up: dose 320 mg/kg; details: in vivo
Plasmodium cynomolgi [6] = assay: Antimalarial activity against Plasmodium cynomolgi infected in rhesus monkey assessed as disease relapsing day at 0.375 mg/kg administered qd for 7 days via stomach tube; format: functional
Plasmodium cynomolgi [7] = assay: Antimalarial activity against Plasmodium cynomolgi infected in rhesus monkey assessed as disease relapsing day at 0.5 mg/kg administered qd for 7 days via stomach tube; format: functional
Plasmodium berghei [8] = assay: Antimalarial activity against blood schizonticidal Plasmodium berghei infected in mouse assessed as change in host mean survival time at 40 mg/kg; format: functional
Plasmodium berghei [9] = assay: Antimalarial activity against blood schizonticidal Plasmodium berghei infected in mouse assessed as change in host mean survival time at 20 mg/kg; format: functional
Plasmodium cynomolgi [10] = assay: Antimalarial activity against Plasmodium cynomolgi infected in rhesus monkey assessed as curative activity without disease relapses until 90 days at 0.75 mg/kg administered qd for 7 days via stomach tube; format: functional, organism-based; set-up: dose 0.75 mg/kg
Plasmodium berghei [11] = assay: Antimalarial activity against blood schizonticidal Plasmodium berghei infected in mouse assessed as change in host mean survival time at 160 mg/kg; format: functional
Plasmodium berghei [12] = assay: Antimalarial activity against blood schizonticidal Plasmodium berghei infected in mouse assessed as change in host mean survival time at 320 mg/kg; format: functional
Plasmodium berghei [13] = assay: Antimalarial activity against blood schizonticidal Plasmodium berghei infected in mouse assessed as change in host mean survival time at 640 mg/kg; format: functional
Plasmodium cynomolgi [14] = assay: Antimalarial activity against Plasmodium cynomolgi infected in rhesus monkey assessed as disease relapsing day at 0.125 mg/kg administered qd for 7 days via stomach tube; format: functional
[15] = test system: Plasmodium berghei yoelii; assay: Antimalarial activity against sporozite stage of Plasmodium berghei yoelii infected in mouse assessed as curative activity at 160 mg/kg, po; format: functional, organism-based; set-up: dose 160 mg/kg
[16] = test system: Plasmodium berghei yoelii; assay: Antimalarial activity against sporozite stage of Plasmodium berghei yoelii infected in mouse assessed as host survival at 10 to 40 mg/kg, po; format: functional, organism-based
[17] = test system: Plasmodium berghei yoelii; assay: Antimalarial activity against sporozite stage of Plasmodium berghei yoelii infected in mouse assessed as host survival at 10 to 160 mg/kg, sc; format: functional, organism-based
Mus musculus [18] = assay: Toxicity in mouse infected with blood schizonticidal Plasmodium berghei assessed as mortality at 80 mg/kg measured on days 2 to 5 after infection; format: organism-based; set-up: dose 80 mg/kg; details: in vivo
Plasmodium cynomolgi [19] = assay: Antimalarial activity against Plasmodium cynomolgi infected in rhesus monkey assessed as disease relapsing day at 0.25 mg/kg administered qd for 7 days via stomach tube; format: functional
Plasmodium cynomolgi [20] = assay: Antimalarial activity against Plasmodium cynomolgi infected in rhesus monkey assessed as disease relapsing day at 1 mg/kg administered qd for 7 days via stomach tube; format: functional
Plasmodium cynomolgi [21] = assay: Antimalarial activity against Plasmodium cynomolgi infected in rhesus monkey assessed as curative activity without disease relapses until 90 days at 0.25 mg/kg administered qd for 7 days via stomach tube; format: functional, organism-based; set-up: dose 0.25 mg/kg
Plasmodium cynomolgi [22] = assay: Antimalarial activity against Plasmodium cynomolgi infected in rhesus monkey assessed as curative activity without disease relapses until 90 days at 1 mg/kg administered qd for 7 days via stomach tube; format: functional, organism-based; set-up: dose 1 mg/kg
Plasmodium cynomolgi [23] = assay: Antimalarial activity against Plasmodium cynomolgi infected in rhesus monkey assessed as curative activity without disease relapses until 90 days at 0.125 mg/kg administered qd for 7 days via stomach tube; format: functional, organism-based; set-up: dose 0.125 mg/kg

SMILES: COc1cc(NC(C)CCCN)c2ncccc2c1 (configuration not stated) [PRIMAQUINE]
- Activity (Plasmodium cynomolgi [1]): inactive
- Activity (Mus musculus [2]): Toxic
- Activity (Mus musculus [3]): Toxic
- MST (Plasmodium berghei [4]): 9.4 days
- Activity (Mus musculus [5]): Toxic
- Time (Plasmodium cynomolgi [6]): 11 days
- Time (Plasmodium cynomolgi [7]): 11 days
- MST (Plasmodium berghei [8]): 5 days
- MST (Plasmodium berghei [9]): 4 days
- Activity (Plasmodium cynomolgi [10]): Active

SMILES: CCc1ccnc2c(NCCCCCCN3CCN(CCO)CC3)cc(OC)cc12
- MST (Plasmodium berghei [11]): 2.5 days
- Activity (Mus musculus [3]): Toxic
- MST (Plasmodium berghei [4]): 2.7 days
- MST (Plasmodium berghei [12]): 4.1 days
- MST (Plasmodium berghei [8]): 0.7 days
- MST (Plasmodium berghei [9]): 0.1 days

SMILES: CCc1ccnc2c(NC(C)CCCNC(C)C)cc(OC)cc12 (configuration not stated)
- MST (Plasmodium berghei [11]): 6.7 days
- Activity (Mus musculus [3]): Toxic
- MST (Plasmodium berghei [4]): 3.5 days
- MST (Plasmodium berghei [12]): 10.5 days
- MST (Plasmodium berghei [8]): 2.3 days
- MST (Plasmodium berghei [9]): -0.3 days

SMILES: COc1ccc(SCCc2ccnc3c(NC(C)CCCN)cc(OC)cc23)cc1 (configuration not stated)
- MST (Plasmodium berghei [11]): 2.7 days
- MST (Plasmodium berghei [13]): 7.5 days
- Time (Plasmodium cynomolgi [14]): 9 days
- MST (Plasmodium berghei [4]): 2.1 days
- Activity [15]: Active
- MST (Plasmodium berghei [12]): 6.1 days
- MST (Plasmodium berghei [8]): 0.3 days
- MST (Plasmodium berghei [9]): 0.1 days
- Activity [16]: inactive
- Activity [17]: inactive

SMILES: CCc1ccnc2c(NCCCCCCN)cc(OC)cc12
- Activity (Mus musculus [18]): Toxic
- Activity (Mus musculus [2]): Toxic
- MST (Plasmodium berghei [4]): 4.8 days
- MST (Plasmodium berghei [8]): 0.8 days

SMILES: CCc1ccnc2c(NCCCCCCN(CC)CC)cc(OC)cc12
- MST (Plasmodium berghei [11]): 5.5 days
- MST (Plasmodium berghei [13]): 7.9 days
- MST (Plasmodium berghei [4]): 3.3 days
- MST (Plasmodium berghei [12]): 6.7 days
- MST (Plasmodium berghei [8]): 1.7 days
- MST (Plasmodium berghei [9]): 0.5 days

SMILES: C=Cc1ccnc2c(NC(C)CCCN)cc(OC)cc12 (configuration not stated)
- MST (Plasmodium berghei [11]): 8.7 days
- Activity (Mus musculus [3]): Toxic
- MST (Plasmodium berghei [4]): 5.9 days
- Activity (Mus musculus [5]): Toxic
- Time (Plasmodium cynomolgi [19]): 7 days
- Time (Plasmodium cynomolgi [20]): 24 days
- Time (Plasmodium cynomolgi [7]): 10 days
- MST (Plasmodium berghei [12]): 7.7 days
- MST (Plasmodium berghei [8]): 1.7 days
- MST (Plasmodium berghei [9]): 1.1 days
- Activity (Plasmodium cynomolgi [21]): inactive

SMILES: COc1cc(NC(C)CCCN)c2nccc(CCSc3ccc(F)cc3)c2c1 (configuration not stated)
- Activity (Plasmodium cynomolgi [22]): inactive
- Time (Plasmodium cynomolgi [19]): 13 days
- Time (Plasmodium cynomolgi [20]): 6 days
- Time (Plasmodium cynomolgi [7]): 7 days
- Activity (Plasmodium cynomolgi [21]): inactive

SMILES: CCc1ccnc2c(NC(C)CCCN)cc(OC)cc12 (configuration not stated)
- MST (Plasmodium berghei [11]): 6.4 days
- MST (Plasmodium berghei [4]): 5.2 days
- Time (Plasmodium cynomolgi [19]): 7 days
- Time (Plasmodium cynomolgi [20]): 37 days
- Time (Plasmodium cynomolgi [7]): 28 days
- MST (Plasmodium berghei [12]): 11.5 days
- MST (Plasmodium berghei [8]): 3.8 days
- MST (Plasmodium berghei [9]): 2.8 days
- Activity (Plasmodium cynomolgi [23]): inactive
- Activity (Plasmodium cynomolgi [21]): inactive

SMILES: CCc1ccnc2c(NC(C)CCCN(CC)CC)cc(OC)cc12 (configuration not stated)
- MST (Plasmodium berghei [11]): 6.6 days
- Activity (Mus musculus [3]): Toxic
- MST (Plasmodium berghei [4]): 3.7 days
- Activity (Mus musculus [5]): Toxic
- MST (Plasmodium berghei [8]): 1.5 days
- MST (Plasmodium berghei [9]): 1.1 days

SMILES: CCc1ccnc2c(NCCCCN)cc(OC)cc12
- MST (Plasmodium berghei [11]): 2.9 days
- Activity (Mus musculus [3]): Non-toxic
- MST (Plasmodium berghei [13]): 7.9 days
- MST (Plasmodium berghei [4]): 2.1 days
- MST (Plasmodium berghei [12]): 6.3 days
- MST (Plasmodium berghei [8]): 1.7 days
- MST (Plasmodium berghei [9]): 0.9 days

SMILES: COc1cc(NC(C)CCCN)c2nccc(CCSc3ccc(Cl)cc3)c2c1 (configuration not stated)
- MST (Plasmodium berghei [11]): 7.7 days
- MST (Plasmodium berghei [13]): 14.6 days
- MST (Plasmodium berghei [4]): 6.3 days
- MST (Plasmodium berghei [12]): 8.9 days
- MST (Plasmodium berghei [8]): 3.3 days
- MST (Plasmodium berghei [9]): 2.3 days

From ChEMBL document CHEMBL3227982, “Synthesis of some 4-substituted 8-amino-6-methoxyquinolines as potential antimalarials” (J Med Chem, 1979)
